“Also recorded” adds a separate entry of the source. Read-outs that look alike come from different tables or passages of the source.
Experiments:
[1] = test system: CFU-C-8; format: in vivo, mice
Protocol: A study on cytoprotective effect of the compound 1 was conducted.

[2] = test system: hematopoietic stem cells; assay: cloning method of hematopoietic stem cells in the spleens of irradiated mice (spleen colony formation by donor bone marrow cells, radioprotection); format: in vivo
Protocol: The study of radioprotective and cytoprotective properties of compound 1 and the complex compound 2 (ratio 1:3) by cloning method of hematopoietic stem cells in the spleens of irradiated mice.
1) Formation of spleen colonies by bone marrow cells of mice that received Compound 2 multiple times prior to irradiation at a dose of 1.5 Gy. Unlike compound 1, the complex form of compound 2 is water-soluble.
Compound 2 was administered orally to mice-donors of bone marrow at doses of 5 mg/kg and 2 mg/kg in 0.2 ml physiological solution for 5 days. […] Control mice received 0.2 ml of physiological solution for 5 days. 7 days after the last injection, mice were irradiated (1.5 Gy at installation “Luch-1”). 15 minutes later the animals were sacrificed, a bone marrow cell suspension was prepared and injected to lethally irradiated recipient mice for determination of the colony-forming ability.
2) Formation of spleen colonies by bone marrow cells of mice that received Compound 1, suspended in a starch gel, multiple times prior to irradiation at a dose of 1.5 Gy.
In the second series of experiments using the same experimental scheme and similar doses, the Compound 1 suspension was prepared in 2% starch gel. 90 female mice (CBA×C57B1/6) F1 were used in this study: 18 donors and 72 recipients.

N.N.[Cl][Pt][Cl] [Cisplatin, reference compound]
CFU-C-8 Quantity on 10^5 bone marrow cells of donors ([1]; mouse, in vivo): 6.4 ± 0.6

c1ccc(C2C3=C(CCCC3)[Se]C3=C2CCCC3)cc1 [Compound 1, 9-phenyl-sym-octahydroselenoxanthene]
CFU-C-8 Quantity on 10^5 bone marrow cells of donors ([1]; Compound 1 5 mg/kg 7 days prior to single Cisplatin 5 mg/kg): 9.6 ± 0.3 | CFU-C-8 Quantity on 10^5 bone marrow cells of donors ([1]; Compound 1 5 mg/kg, no Cisplatin): 12.6 ± 0.6 | adaptive response of CFU-S-8 to cisplatin (in words) ([1]; administered 7 days prior to a single injection of cisplatin): distinct adaptive response | Quantity of colonies on 105 cells of bone marrow M ± m ([2]; Compound 1 2 mg/kg + Starch gel 2%, no irradiation, 2 mg/kg): 24 ± 1.3 | Quantity of colonies on 105 cells of bone marrow M ± m ([2]; Compound 1 2 mg/kg + Starch gel 2%, no irradiation, listed as compound 1, 2 mg/kg): statistically significant increase in the number of colonies | Quantity of colonies on 105 cells of bone marrow M ± m ([2]; Compound 1 2 mg/kg + Starch gel 2%, then 1.5 Gy irradiation): 9.1 ± 0.3 | Quantity of colonies on 105 cells of bone marrow M ± m ([2]; Compound 1 5 mg/kg + Starch gel 2%, no irradiation, 5 mg/kg): 28.7 ± 1.1 | Quantity of colonies on 105 cells of bone marrow M ± m ([2]; Compound 1 5 mg/kg + Starch gel 2%, no irradiation, listed as compound 1, 5 mg/kg): statistically significant increase in the number of colonies | Quantity of colonies on 105 cells of bone marrow M ± m ([2]; Compound 1 5 mg/kg + Starch gel 2%, then 1.5 Gy irradiation): 9.5 ± 0.8 | adaptive response of hematopoietic stem cells to irradiation / radioprotective effect (in words) ([2]; treatment for 5 days prior to irradiation 1.5 Gy, both doses (5 and 2 mg/kg)): absent; also recorded: does not provide the radioprotective effect
